Assay results taken from article PMC6691788, “Design and synthesis of phthalazine-based compounds as potent anticancer agents with potential antiangiogenic activity via VEGFR-2 inhibition” (Journal of Enzyme Inhibition and Medicinal Chemistry, 2019).
Read-outs that look alike come from different tables or passages of the source.

Columns and labels:
NCI-H522 = experiment: NCI 60 cell panel SRB screen; format: cell-based; settings: Homo sapiens; for GI50 / IC (TGI) / CC50: NCI-H522, 5 log dose; for CC50: 48 h, read-out: LC50 (the source's name); for activity at 10 µM: NCI-H522, single dose 10 μM, read-out: percent cell growth promotion
COLO 205 = experiment: NCI 60 cell panel SRB screen; format: cell-based; settings: Homo sapiens; for GI50 / IC (TGI) / CC50: COLO 205, 5 log dose; for CC50: 48 h, read-out: LC50 (the source's name); for activity at 10 µM: COLO 205, single dose 10 μM, read-out: percent cell growth promotion
M14 = experiment: NCI 60 cell panel SRB screen; format: cell-based; settings: Homo sapiens; for GI50: M14; for IC (TGI): M14, read-out: TGI; for activity at 10 µM: M14, read-out: percent cell growth promotion; for CC50: M14, 5 log dose, 48 h, read-out: LC50 (the source's name)
TK-10 = experiment: NCI 60 cell panel SRB screen; format: cell-based, human; settings: for activity at 10 µM: TK-10, single dose 10 μM, read-out: percent cell growth promotion
DU-145 = experiment: NCI 60 cell panel SRB screen; format: cell-based; settings: Homo sapiens; for GI50 / IC (TGI) / CC50: DU-145, 5 log dose; for CC50: 48 h, read-out: LC50 (the source's name); for activity at 10 µM: DU-145, single dose 10 μM, read-out: percent cell growth promotion
full NCI 60 cell panel = experiment: NCI 60 cell panel SRB screen, whole panel; format: cell-based, human; settings: for activity at 10 µM / inhibition at 10 µM: Homo sapiens, 60 cell; for activity at 10 µM: mean over the panel, single dose 10 μM, read-out: Mean percent cell growth promotion
Description: Aiming to evaluate the general antitumour activity of the synthesised phthalazines, the structures of the final compounds were submitted to National Cancer Institute “NCI” (www.dtp.nci.nih.gov), Bethesda, Maryland, USA. In vitro NCI anticancer screening involves two-stage process, the first stage started with the evaluation of the selected candidates against the full NCI 60 cell lines panel representing leukaemia, non-small cell lung cancer, melanoma, colon, CNS, breast, ovarian, renal and prostate cancers at a single dose of 10 µM. NCI selection is based on degree of structure variation and application of computer modelling techniques to prioritise compounds based on their ability to add diversity to the NCI small molecule compound collection.
Eight compounds (6b, 6e, 7b, 13a, 13c, 16a, 16d and 17a) were selected by NCI for further 5 log dose screening against full NCI 60 cell panel. All the 60 cell lines, representing nine tumour subpanels (leukaemia, non-small cell lung cancer, colon cancer, CNS cancer, prostate cancer, melanoma, ovarian cancer, renal cancer and breast cancer) which were incubated at five different concentrations (0.01, 0.1, 1, 10 and 100 µM) of each of the test compounds. The outcomes were used to create log concentration vs % growth inhibition curves, then three response parameters (GI50, TGI and LC50) were calculated for each cell line, (Tables S4 and S5 in Supplementary material).
The human tumor cell lines of the cancer-screening panel were grown in RPMI 1640 medium containing 5% fetal bovine serum and […] L-glutamine. For a typical screening experiment, cells are inoculated into 96 well microtiter plates in 100 ml at plating densities ranging from 5000 to 40,000 cells/well depending on the doubling time of individual cell lines. After cell inoculation, the microtiter plates are incubated at 37 °C, 5% CO2, 95% air and 100%
relative humidity for 24 h prior to addition of experimental drugs. After 24 h, two plates of each cell line are fixed in situ with TCA, to represent a measurement of the cell population for each cell line at the time of drug addition (Tz). Experimental drugs are dissolved in dimethyl sulfoxide at 400-fold the desired final maximum test concentration and stored frozen prior to use. At the time of drug addition, an aliquot of frozen concentrate is thawed and diluted to twice the desired final maximum test concentration with complete medium containing […] Gentamicin. Additional four, 10-fold or ½log serial dilutions are made to provide a total of five drug concentrations plus control. Aliquots of […] of these different drug dilutions are added to the appropriate microtiter wells already containing 100 ml of medium, resulting in the required final drug concentrations. Following drug addition, the plates are incubated for an additional 48 h at 37 °C, 5% CO2, 95% air, and 100% relative humidity. For adherent cells, the assay is terminated by the addition of cold TCA. Cells are fixed in situ by the gentle addition of […] of cold 50% (w/v) TCA (final concentration,10% TCA) and incubated for 60 min at 4 °C. The supernatant is discarded, and the plates are washed five times with tap water and air dried. Sulforhodamine B (SRB) solution (100 ml) at 0.4% (w/v) in 1% acetic acid is added to each well, and plates are incubated for 10 min at room temperature. After staining, unbound dye is removed by washing five times with 1% acetic acid and the plates are air dried. Bound stain is subsequently dissolved with 10 μM trizma base, and the absorbance is read on an automated plate reader at a wavelength of 515 nm. For suspension cells, the methodology is the same except that the assay is terminated by fixing settled cells at the bottom of the wells by gently adding […] of 80% TCA (final concentration, 16% TCA). […]

[1] = single dose 10 µM, read-out: cell growth inhibition against various cell lines

SMILES | GI50 (NCI-H522) | IC (TGI) (NCI-H522) | CC50 (NCI-H522) | activity at 10 µM (NCI-H522) | GI50 (COLO 205) | IC (TGI) (COLO 205) | CC50 (COLO 205) | activity at 10 µM (COLO 205) | GI50 (M14) | IC (TGI) (M14) | activity at 10 µM (M14) | CC50 (M14) | activity at 10 µM (TK-10; Homo sapiens) | GI50 (DU-145) | IC (TGI) (DU-145) | CC50 (DU-145) | activity at 10 µM (DU-145) | activity at 10 µM (full NCI 60 cell panel) | inhibition at 10 µM (full NCI 60 cell panel; [1]) | other results
O=C(Nc1ccccc1)Nc1ccc(Oc2nnc(Cl)c3ccccc23)cc1 [Compound 13a, 1–(4-(4-Chlorophthalazin-1-yloxy)phenyl)-3-phenylurea] | 2800 nM | 9.68 µM | > 25 µM | 2% | 5240 nM | > 25 µM | > 25 µM | 35.1% | 6150 nM | > 25 µM | 46.2% | > 25 µM | 25.3% | 3010 nM | 10.5 µM | > 25 µM | 39% | 24.1% | > 90% | GI50 (TK-10; Homo sapiens, TK-10, 5 log dose): 6.08 µM; CC50 (TK-10; Homo sapiens, TK-10, 5 log dose, 48 h, read-out: LC50 (the source's name)): > 25 µM; TGI (TK-10; TK-10, 5 log dose): 14.9 µM
O=C(Nc1ccc(Cl)cc1)Nc1ccc(Oc2nnc(Cl)c3ccccc23)cc1 [Compound 13b, 1–(4-Chlorophenyl)-3–(4-(4-chlorophthalazin-1-yloxy)phenyl)urea] |  |  |  | 52.5% |  |  |  | 106% |  |  | 103% |  | 109% |  |  |  | 86.8% | 88.7% |  | cell growth inhibition, in words (full NCI 60 cell panel; single dose 10 µM): did not show any significant cell line growth inhibition
Clc1ccc(Nc2nnc(CNc3ccccc3)c3ccccc23)cc1 [Compound 16a, N-(4-Chlorophenyl)-4-((phenylamino)methyl)phthalazin-1-amine] | 680 nM | 4.62 µM | 18.5 µM | -5.92% | 910 nM | 5.39 µM | 20.5 µM | 11.9% | 1740 nM | 6.65 µM | 5.8% | 20.6 µM | -0.69% | > 25000 nM | > 25 µM | > 25 µM | 19% | 10.7% | > 90% | 
COc1cccc(NCc2nnc(Nc3ccc(Cl)cc3)c3ccccc23)c1 [Compound 16d, N-(4-Chlorophenyl)-4-((3-methoxyphenylamino)methyl)phthalazin-1-amine] | 320 nM | 3.31 µM | 13.1 µM | -43.8% | 490 nM | 4.01 µM | 15.4 µM | -22.2% | 850 nM | 4.69 µM | -15.7% | 12.9 µM | -40.9% | 2400 nM | 6.52 µM | 17.2 µM | 8.3% | -16% | > 90% | inhibition at 10 µM (full NCI 60 cell panel; single dose 10 µM, full panel, read-out: mean growth inhibition): 116%
Clc1ccc(Nc2nnc(COc3ccccc3)c3ccccc23)cc1 [Compound 17a, N-(4-Chlorophenyl)-4-(phenoxymethyl)phthalazin-1-amine] | 350 nM | 4.04 µM | 16.7 µM | -17.4% | 450 nM | 4.38 µM | 16.1 µM | -5.75% | 910 nM | 5.03 µM | -9.99% | 15.2 µM | -17.5% | 2650 nM | 10.5 µM | > 25 µM | 10.4% | -4.07% | > 90% | 
